IC50 data for two molecules are collected here from ChEMBL document CHEMBL3886714, “Substituted 4-pyridones and their use as inhibitors of neutrophil elastase activity” (2016).

SMILES strings stand for the structures.

The assay concerns the target T1, Neutrophil elastase (Homo sapiens, UniProt P08246).
T1 sequence (P08246 whole entry): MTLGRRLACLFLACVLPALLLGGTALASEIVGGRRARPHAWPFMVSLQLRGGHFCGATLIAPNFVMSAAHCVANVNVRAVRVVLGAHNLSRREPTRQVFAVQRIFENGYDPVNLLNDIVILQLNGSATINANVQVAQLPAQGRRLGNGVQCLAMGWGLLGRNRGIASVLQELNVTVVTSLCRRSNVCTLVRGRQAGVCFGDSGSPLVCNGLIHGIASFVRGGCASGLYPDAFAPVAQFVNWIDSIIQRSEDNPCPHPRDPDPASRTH
Put plainly: Human Neutrophil Elastase Assay: Compound buffer: 100 mM Tris, 500 mM NaCl, adjusted to pH 7.5; Assay buffer: 100 mM Tris, 500 mM NaCl, adjusted to pH 7.5, containing 0.01% BSA. Test compounds were prediluted in DMSO and subsequently in compound buffer (5% DMSO final). […] After inactivation of the enzyme, fluorescence intensities were measured at 380 nm excitation and 460 nm emission wavelengths.

For orientation: IC50 means the point on the concentration scale where inhibition reaches its midpoint. Regarding `Cc1c(-c2cccc(C(F)(F)F)c2)c(=O)c(C(=O)NCc2ccc(S(C)(=O)=O)s2)cn1C(C)C`, the IC50 came out at 28 nM. The same measure for `Cc1c(-c2cccc(C(F)F)c2)c(=O)c(C(=O)NCc2ccc(S(C)(=O)=O)cc2)cn1C1CCOC1` (configuration not stated): 27 nM.
